Like-named read-outs stand apart in the source and are kept apart here.
Experiments:
cathepsin X = cathepsin X (Homo sapiens, UniProt Q9UBR2); assay: Determination of relative inhibition of cathepsin X; format: biochemical; set-up: made in house; host or cells: Pichia pastoris
Method: Recombinant or native human cathepsins were used: recombinant cathepsin X and cathepsin S were expressed in Pichia pastoris, recombinant cathepsins B and L in E. coli, [43], native cathepsin H was isolated from human liver. Assay buffers for determining activities of cathepsins X and L consisted of 100 mM sodium acetate buffer, pH 5.5, for cathepsins H, S and B (endopeptidase activity) of 100 mM phosphate buffer pH 6.8, 6.5 and 6.0, respectively and for cathepsin B (exopeptidase activity) of 60 mM acetate buffer pH 5.0. Each assay buffer contained 0.01% Triton X-100 to prevent false positive inhibition due to aggregation of compounds[45], 5 mM cysteine, 1.5 mM EDTA and 0.1% PEG 8000. Enzymes were activated at 37 °C for 5 min before the assays.
Abz-FEK(Dnp)-OH was used as cathepsin X specific substrate in activity assays. 90 μL of activated cathepsin X (20 nM) was added to a black 96-well plate with 5 μL of substrate (3.25 μM final concentration) and 5 μL of the compound (50 μM final concentration). The reaction was monitored continuously at 420 nm ± 10 nm with excitation at 320 nm ± 20 nm and at 37 °C. Relative inhibition (%) was calculated with the equation (1 − v i/v 0) × 100, where v i is reaction velocity in the presence of the compound and v 0 is reaction velocity without the compound.

cathepsin B = target: T1, cathepsin B (Homo sapiens, UniProt P07858); assay: Labeling of cathepsin B with activity-based probe DCG-04 in PC-3 cell lysate; format: biochemical; conditions: 10 µM inhibitor
T1 construct: endogenous in cells; host or cells: PC-3

PC-3 cells = assay: Cytotoxicity assay (MTS) in PC-3 cells; format: cell-based, human; conditions: up to 10 μM, 24 and 48 hours
Method: Human prostate cancer cell line PC-3 cells (obtained from ATCC, Manassas, USA; ATCC Number: CRL-1435) were cultured in F-12 (Gibco) and Advanced DMEM (Gibco) (1:1) with 10% FBS, 1% penicillin/streptomycin and 1% L-glutamine. Rat pheochromocytoma PC-12 cells (obtained from ATCC, Manassas, USA; ATCC Number: CRL-1721) were cultured in Advanced DMEM (Gibco) with 5% FBS, 10% heat-inactivated horse serum, 1% penicillin/streptomycin and 1% L-glutamine.
6.5 × 10^4 PC-3 cells/ml were seeded in a 96-well plate. PC-12 cells were seeded on poly-L-lysine (Sigma) coated plates in serum-free medium at a concentration of 4 × 10^4/well. Cells were treated with various concentrations of compounds (1, 2.5, 5 and 10 μM) for 24 or 48 hours. Cytotoxicity was determined with MTS reagent (CellTiter 96 Aqueous One Solution Cell Proliferation Assay, Promega) and A492 measured after 1 hour.

Sequence of cathepsin X (Q9UBR2 62-303): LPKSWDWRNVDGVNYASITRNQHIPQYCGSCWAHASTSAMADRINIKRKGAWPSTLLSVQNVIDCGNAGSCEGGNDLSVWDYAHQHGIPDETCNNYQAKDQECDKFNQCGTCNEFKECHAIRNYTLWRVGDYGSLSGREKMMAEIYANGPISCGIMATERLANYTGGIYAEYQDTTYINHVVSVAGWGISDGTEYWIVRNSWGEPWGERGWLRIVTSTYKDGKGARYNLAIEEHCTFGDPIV

SMILES: CC(C)n1cnnc1SCC(=O)c1ccc2c(c1)OCCO2 [Compound 22, 1-(2,3-Dihydrobenzo[b][1,4]dioxin-6-yl)-2-((4-isopropyl-4H-1,2,4-triazol-3-yl)thio)ethan-1-one]
- inhibition at 50 µM (cathepsin X; screening at 50 μM compound, read-out: relative inhibition of cathepsin X): > 70%
- inhibition at 50 µM (cathepsin X; second group, 50 μM compound, 1 h preincubation, read-out: % inhibition (1 h preincubation)): 75%
- inhibition of cathepsin B labeling by DCG-04 (cathepsin B): weak inhibition
- cytotoxicity to PC-3 cells (PC-3 cells): not cytotoxic

— publication PMC5597618, “Identification and characterization of the novel reversible and selective cathepsin X inhibitors” (Scientific Reports, 2017)
